Earlier results as cited in patent US20210196621A1, “ALCOHOL-FREE BOTANICAL ORAL CARE PRODUCTS” (The Trustees of Columbia University in the City of New York, priority 2018, published 2021).

Tests used:
[1] = oral rinses, WO 2014/092999

| Molecule | Synergistic activity with thymol and vanilla extract [1] | Synergism with botanical blend absent pomegranate extract (absent pomegranate extract) | Synergism with botanical blends containing pomegranate extract (blends containing pomegranate extract) |
| --- | --- | --- | --- |
| PHMB | showed synergistic activity |  |  |
| [H]/N=C(\N/C(=N/[H])NCCCCCCNC(=N)NC(=N)Nc1ccc(Cl)cc1)Nc1ccc(Cl)cc1 [chlorhexidine] | did not | did not show significant synergism | synergistically enhanced the antibacterial activity |
